This is an account of results in EP4596548A1, “NURR1 MODULATORS” (Ludwig-Maximilians-Universität, priority 2024, dated 2025).

Structures are written as SMILES. Several values for one entry are separate records, joined by “and”; a condition that tells them apart may be missing. Equal values may be shown once. Entries after “also recorded” stand apart in the source; their conditions may differ. Where only a bound is given, the exact number is not on record here.

The first series concerns the target T1, Nurr1 (Homo sapiens, UniProt P43354). Put plainly: Gal4-Nurr1 hybrid reporter gene assay in HEK293T cells. In kind it is cell-based. Details: expressed in transfected cells; host or cells: HEK293T.
Settings: not given
As to the method: Hybrid reporter gene assays. Nurr1 modulation was determined in a Gal4 hybrid reporter gene assay in HEK293T cells (German Collection of Microorganisms and Cell Culture GmbH, DSMZ) using pFR-Luc (Stratagene, La Jolla, CA, USA; reporter), pRL-SV40 (Promega, Madison, WI, USA; internal control) and pFA-CMV-hNurr1-LBD^14, coding for the hinge region and ligand binding domain of the canonical isoform of human Nurr1. […] After 24 h, medium was changed to Opti-MEM without supplements and cells were transiently transfected using Lipofectamine LTX reagent (Invitrogen, Carlsbad, CA, USA) according to the manufacturer's protocol. Five hours after transfection, cells were incubated with the test compounds in Opti-MEM supplemented with penicillin (100 U/mL), streptomycin (100 µg/mL) and 0.1% DMSO for 16 h before luciferase activity was measured using the Dual-Glo Luciferase Assay System (Promega) according to the manufacturer's protocol on a Tecan Spark luminometer (Tecan Deutschland GmbH, Crailsheim, Germany). Firefly luminescence was divided by Renilla luminescence and multiplied by 1000 resulting in relative light units (RLU) to normalize for transfection efficiency and cell growth. Fold activation was obtained by dividing the mean RLU of test compound by the mean RLU of the untreated control. All samples were tested in at least three biologically independent experiments in duplicates. For dose-response curve fitting and calculation of EC50 values, the equation "[Agonist] vs. response -- Variable slope (four parameters)" was used in GraphPad Prism (version 7.00, GraphPad Software, La Jolla, CA, USA). Selectivity profiling was performed with identical procedures using pFA-CMV-Nur77-LBD^14, pFA-CMV-NOR-1-LBD^14, pFA-CMV-THRα-LBD^39, pFA-CMV-RARα-LBD^40, pFA-CMV-PPARα-LBD^41, pFA-CMV-PPARγ-LBD^41, pFA-CMV-PPARδ-LBD^41, pFA-CMV-LXRα-LBD^37, pFA-CMV-FXR-LBD^42 and pFA-CMV-hRXRα-LBD^43.
Target sequence in this assay (P43354 360-595 limits assumed): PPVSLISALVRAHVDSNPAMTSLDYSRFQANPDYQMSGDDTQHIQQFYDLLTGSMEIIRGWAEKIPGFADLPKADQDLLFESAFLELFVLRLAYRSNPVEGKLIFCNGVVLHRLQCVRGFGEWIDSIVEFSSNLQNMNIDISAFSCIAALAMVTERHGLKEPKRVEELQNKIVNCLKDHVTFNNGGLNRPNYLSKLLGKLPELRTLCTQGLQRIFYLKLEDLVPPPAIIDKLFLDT
`Nc1c(-c2ccc(Cl)c(Cl)c2)nc2c(Cl)cccn12` [Compound 24, 8-Chloro-2-(3,4-dichlorophenyl)imidazo[1,2-a]pyridine-3-amine]: the “increase in potency over 8” value amounted to 7 fold.

The same series, now with this note: Gal4-Nurr1 hybrid reporter gene assay; mean±SD; n≥3.
Consider `Cc1cc(N)c2cccc(Cl)c2n1` [Compound 4, 8-chloro-2-methylquinolin-4-amine], for which the EC50 came out at 17 ± 6 µM.
In turn, `Cc1nc2c(Cl)cccn2c1N` [Compound 8, 8-Chloro-2-methylimidazo[1,2-a]pyridine-3-amine] registered an EC50 of 7 ± 1 µM.
The same measure, in the same setting: for `Nc1c(-c2ccc(Cl)cc2)nc2c(Cl)cccn12` [Compound 17] the value was 15 ± 3 µM.
`Nc1c(-c2cccc(Cl)c2)nc2c(Cl)cccn12` [Compound 18]: the EC50 worked out at 9 ± 3 µM.
As to `Cc1ccc(-c2nc3c(Cl)cccn3c2N)cc1` [Compound 20], the EC50 turned out to be 12 ± 2 µM.
The same measure, in the same setting: with `Nc1c(-c2ccc(Cl)c(Cl)c2)nc2c(Cl)cccn12` [Compound 24, 8-Chloro-2-(3,4-dichlorophenyl)imidazo[1,2-a]pyridine-3-amine] the figure was 0.4 µM.
The same measure, in the same setting: for `Cc1ccc(-c2nc3c(Cl)cccn3c2N)cc1C` [Compound 25] the value was 14 ± 2 µM; for `Cc1nc2c(Cl)cccn2c1NC(=O)c1ccc(-c2ccc(Cl)cc2)o1` [Compound 26], 1.6 ± 0.5 µM.
As for `Cc1nc2c(Cl)cccn2c1NC(=O)c1ccc(-c2ccccc2)o1` [Compound 27], the EC50 came to 4 ± 1 µM.
Turning to `Cc1nc2c(Cl)cccn2c1NC(=O)c1ccc(-c2ccccc2)s1` [Compound 28], it took 3.2 ± 0.4 µM to reach a half-maximal effect (EC50).
The same measure, in the same setting: for `Cc1nc2c(Cl)cccn2c1NC(=O)c1ccc(-c2ccc(C(F)(F)F)cc2)o1` [Compound 31] the value was 1.1 ± 0.3 µM; for `Cc1ccc(-c2ccc(C(=O)Nc3c(C)nc4c(Cl)cccn34)o2)cc1` [Compound 32], 0.13 ± 0.02 µM; for `Cc1nc2c(Cl)cccn2c1NC(=O)c1ccc(-c2ccc(OC(F)(F)F)cc2)o1` [Compound 33], 0.8 ± 0.2 µM.
Molecule `COc1ccc(-c2ccc(C(=O)Nc3c(C)nc4c(Cl)cccn34)o2)cc1` [Compound 34] gave an EC50 of 0.16 ± 0.06 µM.
On the same count and under the same terms, for `CNc1ccc(-c2ccc(C(=O)Nc3c(C)nc4c(Cl)cccn34)o2)cc1` [Compound 35] the value was 0.3 ± 0.02 µM.

Staying with this series, now noted: maximum effect vs. 0.1% DMSO control; mean±SD; n≥3.
`Cc1cc(N)c2cccc(Cl)c2n1` [Compound 4, 8-chloro-2-methylquinolin-4-amine] registered a max. activation of 1.7±0.1 fold.
Same read-out and setting: for `Cc1nc2c(Cl)cccn2c1N` [Compound 8, 8-Chloro-2-methylimidazo[1,2-a]pyridine-3-amine] the value was 2.0±0.1 fold; for `CC(C)c1nc2c(Cl)cccn2c1N` [Compound 14], under 1.2 fold.
As to `Nc1c(-c2ccccc2)nc2c(Cl)cccn12` [Compound 15], the max. activation turned out to be 1.4±0.1 fold.
Still for that read-out and setting: with `Nc1c(-c2ccoc2)nc2c(Cl)cccn12` [Compound 16] the figure was under 1.2 fold; with `Nc1c(-c2ccc(Cl)cc2)nc2c(Cl)cccn12` [Compound 17], 1.7±0.2 fold; with `Nc1c(-c2cccc(Cl)c2)nc2c(Cl)cccn12` [Compound 18], 1.7±0.1 fold.
`Cc1ccc(-c2nc3c(Cl)cccn3c2N)cc1` [Compound 20] showed a max. activation of 2.0±0.2 fold.
With `Cc1cccc(-c2nc3c(Cl)cccn3c2N)c1` [Compound 21], the max. activation is < 1.2-fold act.
The same measure, in the same setting: with `Nc1c(-c2ccc(C(F)(F)F)cc2)nc2c(Cl)cccn12` [Compound 22] the figure was < 1.2-fold act.
On the same count and under the same terms, for `Nc1c(-c2cccc(C(F)(F)F)c2)nc2c(Cl)cccn12` [Compound 23] the value was < 1.2-fold act; for `Nc1c(-c2ccc(Cl)c(Cl)c2)nc2c(Cl)cccn12` [Compound 24, 8-Chloro-2-(3,4-dichlorophenyl)imidazo[1,2-a]pyridine-3-amine], 1.8 fold and 1.8±0.1 fold; for `Cc1ccc(-c2nc3c(Cl)cccn3c2N)cc1C` [Compound 25], 1.6±0.1 fold.
`Cc1nc2c(Cl)cccn2c1NC(=O)c1ccc(-c2ccc(Cl)cc2)o1` [Compound 26] had a max. activation of 1.8±0.1 fold.
Take `Cc1nc2c(Cl)cccn2c1NC(=O)c1ccc(-c2ccccc2)o1` [Compound 27]: the max. activation is 2.1±0.1 fold.
The same measure, in the same setting: with `Cc1nc2c(Cl)cccn2c1NC(=O)c1ccc(-c2ccccc2)s1` [Compound 28] the figure was 2.1±0.1 fold; with `Cc1ccc(-c2ccc(C(=O)Nc3c(C)nc4c(Cl)cccn34)o2)cc1` [Compound 32], 2.0±0.2 fold; with `COc1ccc(-c2ccc(C(=O)Nc3c(C)nc4c(Cl)cccn34)o2)cc1` [Compound 34], 1.7±0.1 fold.

The series is the same for the next values; noted with them: result in words, at 10 µM.
As for `Cc1nc2c(Cl)cccn2c1NC(=O)c1ccc(-c2ccccc2)cc1` [Compound 30], the “EC50(Nurr1) (max. activation)” value is “inactive (10 µM)”.

Staying with this series, now noted: result in words, at 100 µM.
Consider `Cc1nc2cccc(Cl)c2[nH]1` [Compound 7, 4-Chloro-2-methyl-benzimidazole], for which the “EC50(Nurr1) (max. activation)” value is “failed to activate Nurr1; also recorded: inactive (100 µM)”.
Regarding `Cc1nc2cc(Cl)ccn2c1N` [Compound 9], the “EC50(Nurr1) (max. activation)” value is “inactive (100 µM)”.
On the same count and under the same terms, with `Nc1cnc2ccccn12` [Compound 10] the entry was “inactive (100 µM)”; with `Clc1cccn2ccnc12` [Compound 11], “inactive (100 µM)”.
Same read-out and setting: for `Nc1cnc2c(Cl)cccn12` [Compound 12, 3-Amino-8-chloroimidazo[1,2-a]pyridine] the value was “inactive (100 µM)”; for `Cc1nc2ccccn2c1N` [Compound 13], “inactive (100 µM)”; for `CC(C)c1nc2c(Cl)cccn2c1N` [Compound 14], “inactive”.
Regarding `Nc1c(-c2ccoc2)nc2c(Cl)cccn12` [Compound 16], the “EC50(Nurr1) (max. activation)” value was “inactive”.
The same measure, in the same setting: for `Nc1c(-c2ccccc2Cl)nc2c(Cl)cccn12` [Compound 19] the value was “inactive (100 µM)”.

The target in the next series is T1, Nurr1. Put plainly: Ligand efficiency metrics. The conditions noted are these: computed according to ref. 29.
Target sequence in this assay (P43354 whole entry, the tested form may be a part): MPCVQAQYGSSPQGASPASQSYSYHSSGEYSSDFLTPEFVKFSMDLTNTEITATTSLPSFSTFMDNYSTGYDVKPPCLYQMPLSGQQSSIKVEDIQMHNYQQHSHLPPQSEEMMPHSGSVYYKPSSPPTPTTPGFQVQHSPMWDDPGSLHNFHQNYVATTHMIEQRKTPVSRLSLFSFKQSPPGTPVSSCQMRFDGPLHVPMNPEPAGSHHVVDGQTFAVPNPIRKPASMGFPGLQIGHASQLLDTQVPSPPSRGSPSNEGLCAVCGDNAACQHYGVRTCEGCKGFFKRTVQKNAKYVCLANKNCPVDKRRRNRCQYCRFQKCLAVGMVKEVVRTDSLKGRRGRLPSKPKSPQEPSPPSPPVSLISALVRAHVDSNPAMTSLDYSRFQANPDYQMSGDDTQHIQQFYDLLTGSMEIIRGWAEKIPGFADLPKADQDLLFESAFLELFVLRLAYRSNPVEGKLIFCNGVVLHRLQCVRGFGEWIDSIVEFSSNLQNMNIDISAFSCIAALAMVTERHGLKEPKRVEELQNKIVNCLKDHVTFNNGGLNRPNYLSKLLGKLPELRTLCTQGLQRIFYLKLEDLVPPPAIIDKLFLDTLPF
Consider `Cc1cc(N)c2cccc(Cl)c2n1` [Compound 4, 8-chloro-2-methylquinolin-4-amine], for which the “ligand efficiency (LE)” value turned out to be 0.50, the “lipophilic ligand efficiency (LLE)” value was 1.99 and the “size-independent ligand eff. (SILE)” value stood at 2.21.
Turning to `Cc1nc2c(Cl)cccn2c1N` [Compound 8, 8-Chloro-2-methylimidazo[1,2-a]pyridine-3-amine], the “ligand efficiency (LE)” value was 0.59, the “lipophilic ligand efficiency (LLE)” value is reported as 3.28 and the “size-independent ligand eff. (SILE)” value was determined as 2.45.

A further series deals with T2, Nurr1 LBD (Homo sapiens, UniProt P43354).
T2 construct: Nurr1 LBD protein (10-30 µM, expressed as described previously^21); made in house
T2 sequence (P43354 360-595 limits assumed): as the sequence (P43354 360-595 limits assumed) above
As to the kind of experiment: Isothermal titration calorimetry (ITC). The settings on record: ITC at 25°C. It is filed as binding. As to the method:
Isothermal Titration Calorimetry (ITC). ITC experiments were conducted on an Affinity ITC instrument (TA Instruments, New Castle, DE) at 25°C with a stirring rate of 75 rpm. Nurr1 LBD protein (10-30 µM, expressed as described previously^21) in buffer (20 mM Tris pH 7.5, 100 mM NaCl, 5% glycerol) containing 1-4% DMSO was titrated with the test compounds (60-150 µM in the same buffer containing 1-4% DMSO) in 26 injections (1x 1 µL, 25x 3-4 µL) with an injection interval of 150 s. As control experiments, the test compounds were titrated to the buffer, and the buffer was titrated to the Nurr1 LBD protein under otherwise identical conditions. Results were analyzed using NanoAnalyze software (version 3.11.0, TA Instruments, New Castle, DE) with independent binding models.
In the case of `Cc1nc2c(Cl)cccn2c1N` [Compound 8, 8-Chloro-2-methylimidazo[1,2-a]pyridine-3-amine], the Kd was 2.7 µM.
Consider `Nc1c(-c2ccc(Cl)c(Cl)c2)nc2c(Cl)cccn12` [Compound 24, 8-Chloro-2-(3,4-dichlorophenyl)imidazo[1,2-a]pyridine-3-amine], for which the affinity, expressed as Kd, was 0.7 µM.
Same read-out and setting: with `Cc1nc2c(Cl)cccn2c1NC(=O)c1ccc(-c2ccc(Cl)cc2)o1` [Compound 26] the figure was 0.7 µM.

The EC50 is the concentration giving half of the maximal effect. A lower EC50 goes with greater potency. One may read the Kd as the constant that tells how readily two partners part at equilibrium.
